{"source": "paper PMC8851282", "about": "“Senolysis induced by 25-hydroxycholesterol targets CRYAB in multiple cell types” (iScience, 2022)", "key": {"[1]": {"tested_on": "FAPs", "experiment": "Cell viability assay (cell counting kit-8) of senescent and non-senescent FAPs treated with inhibitors", "type": "cell-based, mouse", "details": "for IC50: Mus musculus, FAPs", "protocol": "Figure 3 25HC is a senolytic in multiple muscle cell types (A) Targets, compounds, and mechanisms. (B) Timeline of cell viability assay with inhibitors. Cells were pre-cultured for 24 h, treated with Doxo for 24 h, and then treated with inhibitors. Cell viability was analyzed from day 0–7. (C–E) Effects of inhibitors on viability of FAPs, SCs, and HSMMs. Cells were treated with inhibitors at the indicated concentrations. Cell viability was analyzed on day 3 (HSMMs) or 5 (FAPs and SCs). Blue and red dots indicate non-senescent (NS) and senescent (SEN), respectively. The average value at 0 μM for each group was set at 100% cell viability. p values versus NS were obtained using unpaired two-tailed Student’s t test. ∗p < 0.05, ∗∗p < 0.01, and ∗∗∗p < 0.001.\nFigure 4 EC50 fitted curves (triplicates) of inhibitor effects at 3 and 7 days in FAPS and SCs EC50 was defined as the concentration of inhibitors that provokes a response halfway between baseline and maximum senolytic activity. EC50 values were determined by four- parameter logistic modeling using GraphPad Prism 8.0.\nHind limb muscles were digested in DMEM containing 0.5% (w/v) collagenase type II (Worthington) for 90 min at 37 °C with trituration and passed through a 40-μm nylon mesh. Erythrocytes were eliminated by treating with BD Pharm Lyse (BD Biosciences). Cells were resuspended in a washing buffer of PBS with 2% FBS and stained with antibodies for 30 min at 4 °C as described ([Kamizaki et al., 2017]). FAPs and SCs were isolated from the suspension by FACS (Aria II, BD Biosciences) using anti-CD31, CD45, Sca-1, PDGFR and VCAM1 antibodies. FAPs were identified as Sca1/PDGFR-positive and CD31-, CD45- and VCAM1-negative cells ([Uezumi et al., 2010]). SCs were identified as VCAM1-positive and CD31-, CD45-, Sca-1 and PDGFR-negative cells ([Liu et al., 2015]).\nAll experiments were performed in incubators at 37 °C, 3% O2 and 5% CO2. Senescence was induced by treatment with either Doxo (250 nM for 24 h) ([Demaria et al., 2017]) or X-irradiation (10 Gy) ([Limbad et al., 2020]). For cell culture studies using 25HC, it was used at the indicated concentrations in the media.\nFAPs and SCs were cultured on Matrigel-coated dishes (BD Biosciences) in growth medium (GM) consisting of DMEM plus 10% FBS, 1% penicillin-streptomycin and 10% MyoCult (STEMCELL Technologies) for 7 days. Human myogenic cell HSMMs (Lonza) were maintained according to the manufacturer’s instructions with SkGM-2 medium (Lonza).\nCell viability was assessed using a cell counting kit-8 from Dojindo Molecular Technologies, Inc (Cat CK04-20). Cells were incubated with culture media + 10% kit cell viability reagent, 150 μL/well in 96-well plates for 2 h. The supernatant was transferred to a new 96-well plate and absorbance read at 450 nm as recommended in the product datasheet."}, "[2]": {"tested_on": "15-d-PGJ2", "experiment": "15-d-PGJ2 ELISA in urine of Doxo-treated mice given 25HC", "type": "in vivo, mouse", "details": "urine collected after the first treatment with 25HC 50 mg/kg i.p. (24 h per Figure 8, 12 hr per methods)", "protocol": "Figure 8 25HC induces senolysis in vivo in Doxo-treated mice (A) Timeline of 25HC treatment in Doxo-treated mice. Mice were given 4 mg/kg Doxo or PBS for 5 daily injections[A1], then injected with 25HC or vehicle for 7 consecutive days. (B) Mass of gastrocnemius muscles. Muscle weight was normalized to body weight. (C) Cdkn2a and Cryab mRNA levels in gastrocnemius (Gastroc) and soleus (Sol) muscles. RNA was collected 28–30 d after the first treatment with Doxo. mRNA levels were quantified by qRT-PCR, and normalized to actin mRNA levels. The average value of PBS-vehicle was set at 1. (D) 15-d-PGJ2 analysis in urine. […]\nMale C57BL/6J mice (3–4 months old) were purchased from the Jackson Laboratory. […] Senescence markers p16^INK4a, p21^Cip1 and CRYAB expression was analyzed on gastrocnemius (Gastroc), soleus (So), tibialis anterior (TA), visceral fat (VF), kidney (Ki), liver (Li), lung (Lu), heart (He), and skin (Sk) samples by qRT-PCR.\nUrine was collected at 12 or 24 h after the first treatment with 25HC or vehicle and diluted 10-fold with assay buffer. The amount of 15-d-PGJ2 was measured using a 15-deoxy-Δ^12,14-PGJ2 ELISA kit according to manufactures’ protocol (Enzo Life Sciences)."}}, "data": [{"compound": "C[C@H](CCCC(C)(C)O)[C@H]1CC[C@H]2[C@@H]3CC=C4C[C@@H](O)CC[C@]4(C)[C@H]3CC[C@]12C", "note": "[25HC, 25-hydroxycholesterol]", "values": [{"measurement": "viability of senescent versus non-senescent FAPs", "setting": "[1]; Doxo-induced senescence, viability on day 5, 25HC at concentrations between 0.1 and 1 μM", "result": "specifically decreased the viability of senescent FAPs"}, {"measurement": "IC50", "setting": "[1]; 72 h, 3 days in culture", "result": 1700, "unit": "nM"}, {"measurement": "IC50", "setting": "[1]; 168 h, 7 days in culture", "result": 1200, "unit": "nM"}, {"measurement": "15-d-PGJ2 levels in urine", "setting": "[2]", "result": "increased significantly"}]}]}
